Measurements reported in ChEMBL document CHEMBL1201862, “PubChem BioAssay data set” (2004).
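48-hour exposure; five concentrations; linearly interpolated endpoints. At the GI50, growth is halved.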 Activity calls are given as the source filed them. No stated cut-off is given here; in the data, active = GI50 up to about 1.1 µM and inactive = higher.

Assays:
Experiment in all cases: inhibition of tumour cell growth, NCI panel, 48 h
ACHN = system: ACHN
CAKI-1 = system: CAKI-1
CCRF-CEM = system: CCRF-CEM
EKVX = system: EKVX
HOP-62 = system: HOP-62
K562 = system: K562
KM12 = system: KM12
MDA-MB-231 = system: MDA-MB-231
MDA-MB-435 = system: MDA-MB-435
MOLT-4 = system: MOLT-4
NCI-H522 = system: NCI-H522
OVCAR-3 = system: OVCAR-3
PC-3 = system: PC-3
RPMI-8226 = system: RPMI-8226
SK-MEL-5 = system: SK-MEL-5
SN12C = system: SN12C
SW-620 = system: SW-620
U-251 = system: U-251

CCN(CC)C(=S)N/N=C1\C(=O)Nc2ccccc21
GI50 (ACHN): 0.42 µM (active) | GI50 (CAKI-1): 0.895 µM (active) | GI50 (CCRF-CEM): 0.347 µM (active) | GI50 (EKVX): 1.36 µM (inactive) | GI50 (HOP-62): 0.431 µM (active) | GI50 (K562): 0.562 µM (active) | GI50 (KM12): 0.451 µM (active) | GI50 (MDA-MB-231): 1.14 µM (inactive) | GI50 (MDA-MB-435): 2.51 µM (inactive) | GI50 (MOLT-4): 0.653 µM (active) | GI50 (NCI-H522): 3.03 µM (inactive) | GI50 (OVCAR-3): 0.192 µM (active) | GI50 (PC-3): 0.334 µM (active) | GI50 (RPMI-8226): 0.355 µM (active) | GI50 (SK-MEL-5): 0.193 µM (active) | GI50 (SN12C): 1.46 µM (inactive) | GI50 (SW-620): 0.493 µM (active) | GI50 (U-251): 1.41 µM (inactive)

C[C@]12CC(c3ccccc3O1)C(C(=O)NC13CC4CC(CC(C4)C1)C3)C(=O)N2 (some centres undefined)
GI50 (ACHN): 34.1 µM (inactive) | GI50 (CAKI-1): 38.6 µM (inactive) | GI50 (CCRF-CEM): 20 µM (inactive) | GI50 (EKVX): 0.249 µM (active) | GI50 (HOP-62): 44.3 µM (inactive) | GI50 (K562): 14 µM (inactive) | GI50 (KM12): 35.5 µM (inactive) | GI50 (MDA-MB-231): 34.4 µM (inactive) | GI50 (MDA-MB-435): 26.2 µM (inactive) | GI50 (MOLT-4): 12 µM (inactive) | GI50 (NCI-H522): 39 µM (inactive) | GI50 (OVCAR-3): 44.9 µM (inactive) | GI50 (PC-3): 32.1 µM (inactive) | GI50 (RPMI-8226): 16 µM (inactive) | GI50 (SK-MEL-5): 17.9 µM (inactive) | GI50 (SW-620): 46.3 µM (inactive) | GI50 (U-251): 36.6 µM (inactive)

CCOC(=O)NC(NC1=NCCS1)(C(=O)OCC)C(F)(F)F (centres undefined)
GI50 (ACHN): > 100 µM (inactive) | GI50 (CAKI-1): > 100 µM (inactive) | GI50 (CCRF-CEM): > 100 µM (inactive) | GI50 (EKVX): > 100 µM (inactive) | GI50 (HOP-62): > 100 µM (inactive) | GI50 (K562): > 100 µM (inactive) | GI50 (KM12): > 100 µM (inactive) | GI50 (MDA-MB-231): > 100 µM (inactive) | GI50 (MDA-MB-435): > 100 µM (inactive) | GI50 (MOLT-4): > 100 µM (inactive) | GI50 (NCI-H522): > 100 µM (inactive) | GI50 (OVCAR-3): > 100 µM (inactive) | GI50 (PC-3): > 100 µM (inactive) | GI50 (RPMI-8226): > 100 µM (inactive) | GI50 (SK-MEL-5): > 100 µM (inactive) | GI50 (SN12C): > 100 µM (inactive) | GI50 (SW-620): > 100 µM (inactive) | GI50 (U-251): > 100 µM (inactive)

COC(=O)C(=O)C(C(=O)C(=O)Nc1ccc(Cl)c(Cl)c1)c1nc2ccc(C(=O)c3ccccc3)cc2nc1O (centres undefined)
GI50 (ACHN): 46.5 µM (inactive) | GI50 (CAKI-1): 22.5 µM (inactive) | GI50 (CCRF-CEM): 46.6 µM (inactive) | GI50 (EKVX): 44.9 µM (inactive) | GI50 (HOP-62): 41.6 µM (inactive) | GI50 (K562): < 0.01 µM (active) | GI50 (KM12): 29 µM (inactive) | GI50 (MDA-MB-231): 51.3 µM (inactive) | GI50 (MDA-MB-435): 35.4 µM (inactive) | GI50 (MOLT-4): 15 µM (inactive) | GI50 (NCI-H522): 27.7 µM (inactive) | GI50 (OVCAR-3): 86.7 µM (inactive) | GI50 (PC-3): 38.1 µM (inactive) | GI50 (RPMI-8226): 40.2 µM (inactive) | GI50 (SK-MEL-5): > 100 µM (inactive) | GI50 (SN12C): > 100 µM (inactive) | GI50 (SW-620): 46.9 µM (inactive) | GI50 (U-251): 71 µM (inactive)

Cc1ccc(C)c(/C(=N\N=C(N)N)C2CC2)c1
GI50 (ACHN): 42.7 µM (inactive) | GI50 (CAKI-1): > 100 µM (inactive) | GI50 (EKVX): 43.9 µM (inactive) | GI50 (HOP-62): 35.8 µM (inactive) | GI50 (K562): 20.5 µM (inactive) | GI50 (KM12): 39.9 µM (inactive) | GI50 (MDA-MB-231): 63.4 µM (inactive) | GI50 (MDA-MB-435): 22.8 µM (inactive) | GI50 (MOLT-4): 35.2 µM (inactive) | GI50 (NCI-H522): 28.6 µM (inactive) | GI50 (OVCAR-3): 94.6 µM (inactive) | GI50 (PC-3): 48.5 µM (inactive) | GI50 (RPMI-8226): 28.8 µM (inactive) | GI50 (SK-MEL-5): 36.2 µM (inactive) | GI50 (SN12C): 56 µM (inactive) | GI50 (SW-620): 33.1 µM (inactive) | GI50 (U-251): 17.4 µM (inactive)

NC(=S)NC/C=C/Cl
GI50 (ACHN): > 100 µM (inactive) | GI50 (CAKI-1): > 100 µM (inactive) | GI50 (CCRF-CEM): > 100 µM (inactive) | GI50 (EKVX): > 100 µM (inactive) | GI50 (HOP-62): > 100 µM (inactive) | GI50 (K562): > 100 µM (inactive) | GI50 (KM12): > 100 µM (inactive) | GI50 (MDA-MB-231): > 100 µM (inactive) | GI50 (MDA-MB-435): > 100 µM (inactive) | GI50 (MOLT-4): > 100 µM (inactive) | GI50 (NCI-H522): 86.5 µM (inactive) | GI50 (OVCAR-3): > 100 µM (inactive) | GI50 (PC-3): > 100 µM (inactive) | GI50 (RPMI-8226): > 100 µM (inactive) | GI50 (SK-MEL-5): > 100 µM (inactive) | GI50 (SW-620): > 100 µM (inactive)

OC1(c2ccccc2)C2CC=CC2C1(c1ccccc1)c1ccccc1 (centres undefined)
GI50 (ACHN): 43.5 µM (inactive) | GI50 (CAKI-1): 17.1 µM (inactive) | GI50 (CCRF-CEM): 27.8 µM (inactive) | GI50 (EKVX): 20.5 µM (inactive) | GI50 (HOP-62): 70.3 µM (inactive) | GI50 (K562): 35.6 µM (inactive) | GI50 (KM12): 20.6 µM (inactive) | GI50 (MDA-MB-231): 40.6 µM (inactive) | GI50 (MDA-MB-435): 20.7 µM (inactive) | GI50 (MOLT-4): 16.1 µM (inactive) | GI50 (NCI-H522): 13.5 µM (inactive) | GI50 (OVCAR-3): 30.8 µM (inactive) | GI50 (PC-3): 42.6 µM (inactive) | GI50 (RPMI-8226): 25.6 µM (inactive) | GI50 (SK-MEL-5): 17.2 µM (inactive) | GI50 (SN12C): 30.1 µM (inactive) | GI50 (SW-620): 30.2 µM (inactive) | GI50 (U-251): 32.5 µM (inactive)

NC1Cc2ccccc2OC1=O (centres undefined)
GI50 (ACHN): > 100 µM (inactive) | GI50 (CAKI-1): > 100 µM (inactive) | GI50 (EKVX): > 100 µM (inactive) | GI50 (HOP-62): > 100 µM (inactive) | GI50 (K562): > 100 µM (inactive) | GI50 (KM12): > 100 µM (inactive) | GI50 (MDA-MB-231): > 100 µM (inactive) | GI50 (MDA-MB-435): > 100 µM (inactive) | GI50 (MOLT-4): > 100 µM (inactive) | GI50 (NCI-H522): > 100 µM (inactive) | GI50 (OVCAR-3): > 100 µM (inactive) | GI50 (PC-3): > 100 µM (inactive) | GI50 (RPMI-8226): > 100 µM (inactive) | GI50 (SK-MEL-5): > 100 µM (inactive) | GI50 (SN12C): > 100 µM (inactive) | GI50 (SW-620): > 100 µM (inactive) | GI50 (U-251): > 100 µM (inactive)
